The values below come from ChEMBL document CHEMBL1201862, “PubChem BioAssay data set” (2004).

For one assay, the system named is HEK293. Description: Fluorescence-based counterscreen for potentiators or agonists of NPY-Y2: cell-based high-throughput dose response assay to identify inhibitors of cyclic nucleotide gated ion channel (CNGC) activity. In this assay, the parental HEK293 cell line transfected with a cyclic-nucleotide gated ion channel (CNGC)-based cAMP sensor is used to measure inhibition of isoproterenol-induced CNGC activity by test compound. It counts as functional. The conditions noted are these: Homo sapiens.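 Also: stimulus is 1 µM isoproterenol at EC100 plus PDE inhibitor Ro 20-1724 at 25 µM.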

Assay [1] concerns the target Neuropeptide Y receptor type 2 (Homo sapiens, UniProt P49146). In words: Fluorescence-based cell-based high-throughput dose response assay for agonists of NPY-Y2. [Related pubchem assays: 1703 (Screening assay (CNGC inhibitors).), 1359 (Screening assay (NPY-Y2 potentiators or agonists).), 1304 (Screening assay (NPY-Y1 potentiators or agonists).), 1710 (Screening assay (NPY-Y2 agonists).), 1791 (Summary AID.)]. In kind it is functional.

Assay [2] addresses Neuropeptide Y receptor type 1 (Homo sapiens, UniProt P25929). In words: Fluorescence-based counterscreen for agonists of NPY-Y2: cell-based high-throughput dose response assay for agonists of NPY-Y1. It counts as functional.
Another assay relates to Vero. In words: Vero E6 cell cytotoxicity, SAR follow-up, cytotoxicity control for West Nile virus antiviral project, synthesized analogs (AID 2244). It counts as functional. The conditions noted are these: Chlorocebus sabaeus.
The target of the next assay is T1, Aspartyl aminopeptidase (Plasmodium falciparum 3D7, UniProt Q8I2J3).
T1 sequence (Q8I2J3 whole entry): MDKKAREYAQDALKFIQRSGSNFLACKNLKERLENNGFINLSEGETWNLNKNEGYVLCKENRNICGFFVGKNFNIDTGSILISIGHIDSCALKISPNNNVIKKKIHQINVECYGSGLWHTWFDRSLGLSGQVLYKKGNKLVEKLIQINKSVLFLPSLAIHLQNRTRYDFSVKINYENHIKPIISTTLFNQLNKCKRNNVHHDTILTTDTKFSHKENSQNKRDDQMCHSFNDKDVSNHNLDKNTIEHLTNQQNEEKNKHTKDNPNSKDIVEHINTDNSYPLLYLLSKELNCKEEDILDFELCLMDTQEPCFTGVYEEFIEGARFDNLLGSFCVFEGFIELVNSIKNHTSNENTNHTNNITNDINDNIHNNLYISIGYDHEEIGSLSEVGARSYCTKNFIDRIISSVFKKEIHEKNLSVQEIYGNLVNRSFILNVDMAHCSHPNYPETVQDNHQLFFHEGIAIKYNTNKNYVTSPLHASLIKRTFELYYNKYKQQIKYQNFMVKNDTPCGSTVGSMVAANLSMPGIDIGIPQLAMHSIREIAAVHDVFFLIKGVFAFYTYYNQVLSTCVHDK

In the next assay the target is Procathepsin L (Homo sapiens, UniProt P07711).
Procathepsin L, sequence (P07711 whole entry): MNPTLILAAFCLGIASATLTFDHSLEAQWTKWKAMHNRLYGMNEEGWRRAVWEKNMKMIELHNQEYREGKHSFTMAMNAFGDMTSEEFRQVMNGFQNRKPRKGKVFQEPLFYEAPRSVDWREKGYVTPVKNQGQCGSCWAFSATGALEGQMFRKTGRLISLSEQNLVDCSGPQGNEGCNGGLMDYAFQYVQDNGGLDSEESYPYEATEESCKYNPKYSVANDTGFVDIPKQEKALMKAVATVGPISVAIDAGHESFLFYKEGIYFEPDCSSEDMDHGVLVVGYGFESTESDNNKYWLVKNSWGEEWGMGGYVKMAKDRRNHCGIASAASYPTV
For the next assay, the system named is Staphylococcus aureus. In words: Inhibitors of Bacterial Quorum Sensing Structure Activity Relationship (SAR) Analysis: Dose Response Assay. [Related pubchem assays: 700, 527 ]. In kind it is functional, organism-based.
The next assay concerns the target T2, Protein RecA (Mycobacterium tuberculosis, UniProt P9WHJ3).
T2 sequence (P9WHJ3 whole entry): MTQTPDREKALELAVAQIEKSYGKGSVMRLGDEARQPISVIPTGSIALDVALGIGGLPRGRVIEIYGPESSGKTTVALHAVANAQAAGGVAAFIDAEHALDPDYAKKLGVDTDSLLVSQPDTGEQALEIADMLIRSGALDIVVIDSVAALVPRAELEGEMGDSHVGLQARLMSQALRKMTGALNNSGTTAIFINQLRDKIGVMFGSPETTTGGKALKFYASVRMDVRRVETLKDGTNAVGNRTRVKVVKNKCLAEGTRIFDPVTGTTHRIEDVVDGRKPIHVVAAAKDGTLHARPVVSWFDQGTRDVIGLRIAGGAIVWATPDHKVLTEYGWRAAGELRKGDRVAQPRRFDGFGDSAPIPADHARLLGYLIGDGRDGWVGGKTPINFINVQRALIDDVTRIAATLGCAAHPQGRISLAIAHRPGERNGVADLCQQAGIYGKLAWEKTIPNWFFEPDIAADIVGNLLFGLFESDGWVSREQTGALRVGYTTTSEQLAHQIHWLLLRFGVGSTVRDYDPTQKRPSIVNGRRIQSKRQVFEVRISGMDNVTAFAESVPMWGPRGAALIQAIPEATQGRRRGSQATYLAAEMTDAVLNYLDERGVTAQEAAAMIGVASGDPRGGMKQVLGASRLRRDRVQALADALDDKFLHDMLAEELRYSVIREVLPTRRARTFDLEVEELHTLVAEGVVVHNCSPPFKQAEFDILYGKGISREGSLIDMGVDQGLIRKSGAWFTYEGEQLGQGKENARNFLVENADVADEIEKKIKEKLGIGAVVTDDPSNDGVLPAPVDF
Description: Fluorescence Cell-Free Homogeneous Dose Retest to Identify Inhibitors of RecA-Intein Splicing Activity. [Related pubchem assays (depositor defined):AID2097, AID2223, AID489010, AID492950]. In kind it is functional.

The target in assay [3] is Dual specificity tyrosine-phosphorylation-regulated kinase 1A (Rattus norvegicus, UniProt Q63470). In kind it is biochemical, Homo sapiens.
Assay [4] concerns the target T3, Replicative DNA helicase DnaB (Mycobacterium tuberculosis, UniProt P9WMR3).
T3 sequence (P9WMR3 whole entry): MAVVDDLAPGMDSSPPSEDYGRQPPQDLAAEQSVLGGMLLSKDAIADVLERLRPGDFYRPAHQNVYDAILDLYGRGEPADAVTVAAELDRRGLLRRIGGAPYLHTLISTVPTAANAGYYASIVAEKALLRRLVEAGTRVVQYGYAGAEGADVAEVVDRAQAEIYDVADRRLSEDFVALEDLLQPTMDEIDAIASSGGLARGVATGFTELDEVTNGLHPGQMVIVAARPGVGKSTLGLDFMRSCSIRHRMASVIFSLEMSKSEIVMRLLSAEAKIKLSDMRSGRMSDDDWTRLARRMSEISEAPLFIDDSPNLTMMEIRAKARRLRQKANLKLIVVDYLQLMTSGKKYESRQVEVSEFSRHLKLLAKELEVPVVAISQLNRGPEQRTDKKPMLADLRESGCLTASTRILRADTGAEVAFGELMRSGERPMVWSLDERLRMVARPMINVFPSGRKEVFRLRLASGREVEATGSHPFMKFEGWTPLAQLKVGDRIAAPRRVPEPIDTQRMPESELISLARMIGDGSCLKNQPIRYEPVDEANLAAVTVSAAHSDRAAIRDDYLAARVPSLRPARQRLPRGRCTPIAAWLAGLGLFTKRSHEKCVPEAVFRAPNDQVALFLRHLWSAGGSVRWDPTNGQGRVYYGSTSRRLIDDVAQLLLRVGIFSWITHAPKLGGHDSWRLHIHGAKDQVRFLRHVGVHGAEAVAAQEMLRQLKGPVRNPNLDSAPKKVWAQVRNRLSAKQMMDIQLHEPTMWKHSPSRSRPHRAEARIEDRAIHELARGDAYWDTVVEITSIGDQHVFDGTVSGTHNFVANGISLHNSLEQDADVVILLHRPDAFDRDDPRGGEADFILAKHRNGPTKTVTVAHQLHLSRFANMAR
In words: DnaB intein splicing inhibitors, dose response, biochemical, cell-free fluorescence (AID 449749). It counts as functional.

The target in a further assay is Genome polyprotein (dengue virus type 2, UniProt P29990). Description: Dengue-2 NS5 methyltransferase inhibitors, primary screen, biochemical, confirmation dose response (AID 588689). In kind it is functional.
Genome polyprotein, sequence (P29990 2492-3391 limits assumed): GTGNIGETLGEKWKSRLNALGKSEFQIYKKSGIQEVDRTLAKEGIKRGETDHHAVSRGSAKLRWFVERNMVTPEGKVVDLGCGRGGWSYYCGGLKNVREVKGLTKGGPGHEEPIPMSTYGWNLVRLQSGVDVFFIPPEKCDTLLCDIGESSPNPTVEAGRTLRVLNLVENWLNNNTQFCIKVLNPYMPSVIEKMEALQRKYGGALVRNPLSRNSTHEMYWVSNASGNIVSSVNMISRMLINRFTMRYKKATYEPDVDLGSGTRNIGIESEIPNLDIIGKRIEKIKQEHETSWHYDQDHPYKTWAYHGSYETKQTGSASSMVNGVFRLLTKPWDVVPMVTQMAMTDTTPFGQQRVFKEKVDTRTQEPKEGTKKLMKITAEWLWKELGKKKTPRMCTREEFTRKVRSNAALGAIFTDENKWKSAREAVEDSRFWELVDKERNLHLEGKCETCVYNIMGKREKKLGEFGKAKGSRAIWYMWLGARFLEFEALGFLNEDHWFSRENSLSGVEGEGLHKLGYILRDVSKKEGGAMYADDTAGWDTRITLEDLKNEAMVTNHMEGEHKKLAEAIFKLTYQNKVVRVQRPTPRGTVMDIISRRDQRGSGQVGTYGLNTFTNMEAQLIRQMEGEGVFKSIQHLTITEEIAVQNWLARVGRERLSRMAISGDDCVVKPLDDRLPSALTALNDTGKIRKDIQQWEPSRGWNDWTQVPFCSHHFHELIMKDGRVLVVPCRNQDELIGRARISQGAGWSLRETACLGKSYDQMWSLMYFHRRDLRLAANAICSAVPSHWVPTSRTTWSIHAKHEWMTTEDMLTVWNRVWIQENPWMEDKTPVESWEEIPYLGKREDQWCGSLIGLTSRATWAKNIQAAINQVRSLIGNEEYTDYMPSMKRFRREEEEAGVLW
For assay [5], the target named is Serine/threonine-protein phosphatase (Homo sapiens, UniProt Q9BPW0). In words: Counterscreen for inhibitors of PP1: fluorescence-based biochemical high throughput dose response assay to identify inhibitors of Protein Phosphatase 5 (PP5). [Related pubchem assays: 2034 (Summary (PP5 inhibitors)), 1987 (PP5 inhibitors in singlate), 2235 (PP1 inhibitors in singlate)].
Serine/threonine-protein phosphatase, sequence (Q9BPW0 whole entry): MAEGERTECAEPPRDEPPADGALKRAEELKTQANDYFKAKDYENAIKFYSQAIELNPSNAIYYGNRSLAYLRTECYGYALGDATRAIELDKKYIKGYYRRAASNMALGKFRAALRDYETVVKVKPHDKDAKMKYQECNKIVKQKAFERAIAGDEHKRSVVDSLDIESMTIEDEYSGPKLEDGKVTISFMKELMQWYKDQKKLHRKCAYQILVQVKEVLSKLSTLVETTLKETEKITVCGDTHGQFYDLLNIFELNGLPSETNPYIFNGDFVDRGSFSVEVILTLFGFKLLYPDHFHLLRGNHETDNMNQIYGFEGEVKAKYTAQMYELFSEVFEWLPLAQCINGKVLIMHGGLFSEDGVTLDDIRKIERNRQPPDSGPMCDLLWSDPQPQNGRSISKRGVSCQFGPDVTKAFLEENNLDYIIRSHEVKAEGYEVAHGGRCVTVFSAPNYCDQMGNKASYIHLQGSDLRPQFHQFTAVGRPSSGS

The target of assay [6] is Serine/threonine-protein phosphatase PP1-alpha catalytic subunit (Homo sapiens, UniProt P62136). Description: PP1 phosphatase inhibitors, dose response, biochemical, fluorescence (AID 2403).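 Also: phosphatase turnover of OMFP into fluorescent 3-O-methylfluorescein.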
Serine/threonine-protein phosphatase PP1-alpha catalytic subunit, sequence (P62136 whole entry): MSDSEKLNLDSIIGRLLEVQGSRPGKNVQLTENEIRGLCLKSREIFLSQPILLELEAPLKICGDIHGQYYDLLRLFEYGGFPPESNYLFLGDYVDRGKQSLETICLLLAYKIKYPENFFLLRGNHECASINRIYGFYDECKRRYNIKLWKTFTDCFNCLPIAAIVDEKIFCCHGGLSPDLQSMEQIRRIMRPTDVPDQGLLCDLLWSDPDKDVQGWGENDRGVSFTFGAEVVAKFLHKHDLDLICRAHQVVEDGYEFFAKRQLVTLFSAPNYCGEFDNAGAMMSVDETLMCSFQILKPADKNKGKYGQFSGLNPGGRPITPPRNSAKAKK
For assay [7], the target named is Heat shock protein HSP 90-alpha (Homo sapiens, UniProt P07900). In kind it is functional, organism-based.
For assay [8], the target named is Transitional endoplasmic reticulum ATPase (Homo sapiens, UniProt P55072). In words: p97 ATPase inhibitors, dose response, biochemical (AID 1534).
Transitional endoplasmic reticulum ATPase (Homo sapiens, UniProt P55072), sequence (P55072 whole entry): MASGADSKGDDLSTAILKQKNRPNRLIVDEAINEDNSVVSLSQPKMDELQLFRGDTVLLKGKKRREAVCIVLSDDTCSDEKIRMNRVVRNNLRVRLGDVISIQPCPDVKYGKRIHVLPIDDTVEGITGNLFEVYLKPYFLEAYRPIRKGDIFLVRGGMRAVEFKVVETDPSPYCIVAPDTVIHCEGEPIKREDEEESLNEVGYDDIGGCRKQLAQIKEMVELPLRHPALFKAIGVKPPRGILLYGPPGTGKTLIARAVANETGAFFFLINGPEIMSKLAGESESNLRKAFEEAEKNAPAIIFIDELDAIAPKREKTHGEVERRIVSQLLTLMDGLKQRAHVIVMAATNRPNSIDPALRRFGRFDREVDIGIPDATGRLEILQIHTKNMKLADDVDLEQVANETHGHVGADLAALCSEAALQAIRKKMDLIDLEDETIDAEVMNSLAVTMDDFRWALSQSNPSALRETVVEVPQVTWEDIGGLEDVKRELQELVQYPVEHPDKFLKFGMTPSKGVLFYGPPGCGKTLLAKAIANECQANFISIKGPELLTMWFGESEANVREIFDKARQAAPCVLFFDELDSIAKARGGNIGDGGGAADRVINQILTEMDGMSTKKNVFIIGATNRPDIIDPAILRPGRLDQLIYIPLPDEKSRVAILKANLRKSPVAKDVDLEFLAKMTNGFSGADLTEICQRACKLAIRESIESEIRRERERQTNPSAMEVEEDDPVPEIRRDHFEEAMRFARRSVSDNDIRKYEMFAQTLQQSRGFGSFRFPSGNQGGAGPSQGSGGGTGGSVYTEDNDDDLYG
The target in assay [9] is Transitional endoplasmic reticulum ATPase (Homo sapiens, UniProt P55072, C522A). In words: C522A mutant p97 ATPase inhibitors, dose response, counter-screen for p97 inhibitor project, biochemical, luminescence (AID 1544).
A short description of assay [10]: inhibitors of Bluetongue virus cytopathic effect, confirmation, arbovirus, BSR cells (AID 1250).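 Also: protection from viral cytopathic effect measured as cell viability by ATP luminescence.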 It counts as functional.
The next assay concerns the target Chaperone protein dnaK (Escherichia coli, UniProt C3TRK2). In words: DnaK beta-domain binding affinity, SAR follow-up, orthogonal assay for DnaK modulator project, biophysical, isothermal titration calorimetry, full-length DnaK (AID 1495).
In assay [11] the target is T4, Alkaline phosphatase, tissue-nonspecific isozyme (Homo sapiens, UniProt P05186).
T4 sequence (P05186 whole entry): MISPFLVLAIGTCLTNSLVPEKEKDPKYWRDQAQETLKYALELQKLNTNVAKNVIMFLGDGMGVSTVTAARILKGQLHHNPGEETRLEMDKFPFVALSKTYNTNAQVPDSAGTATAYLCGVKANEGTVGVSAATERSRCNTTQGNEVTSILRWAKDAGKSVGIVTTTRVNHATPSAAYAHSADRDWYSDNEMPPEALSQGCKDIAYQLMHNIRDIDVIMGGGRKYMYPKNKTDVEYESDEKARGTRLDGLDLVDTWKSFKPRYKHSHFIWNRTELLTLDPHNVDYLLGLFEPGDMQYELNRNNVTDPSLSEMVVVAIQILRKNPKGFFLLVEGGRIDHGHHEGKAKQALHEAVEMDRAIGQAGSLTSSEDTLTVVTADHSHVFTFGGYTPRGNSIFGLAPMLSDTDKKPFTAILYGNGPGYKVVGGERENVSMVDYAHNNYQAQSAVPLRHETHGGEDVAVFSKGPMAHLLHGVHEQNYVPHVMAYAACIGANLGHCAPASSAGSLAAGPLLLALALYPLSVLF
Description: human TNAP enzyme inhibitors, SAR follow-up, biochemical, luminescent, dose response (AID 1056).

Assay [12] has as its target T5, Dual specificity protein phosphatase 6 (Rattus norvegicus, UniProt Q64346).
T5 sequence (Q64346 whole entry): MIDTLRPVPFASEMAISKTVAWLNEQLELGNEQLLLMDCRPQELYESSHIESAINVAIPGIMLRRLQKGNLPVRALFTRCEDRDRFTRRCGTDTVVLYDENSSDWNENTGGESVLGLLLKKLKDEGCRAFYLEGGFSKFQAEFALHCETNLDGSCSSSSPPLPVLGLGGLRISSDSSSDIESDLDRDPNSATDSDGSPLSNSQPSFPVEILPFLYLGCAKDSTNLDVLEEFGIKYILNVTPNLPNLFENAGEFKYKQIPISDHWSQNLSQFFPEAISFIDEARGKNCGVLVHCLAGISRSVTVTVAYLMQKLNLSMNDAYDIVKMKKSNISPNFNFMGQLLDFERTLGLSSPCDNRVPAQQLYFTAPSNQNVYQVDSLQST
In kind it is functional.

The target in assay [13] is T5, Dual specificity protein phosphatase 6.
Assay [14] addresses Heat shock cognate 71 kDa protein (Homo sapiens, UniProt P11142). Description: In Vitro Hsc70 Dose Response Fluorescence Polarization Assay. [Related pubchem assays: 1072 ].
Assay [15] addresses Heat shock 70 kDa protein 1A (Homo sapiens, UniProt P0DMV8). In words: Hsp70 inhibitors, SAR follow-up, biochemical, fluorescence polarization (AID 1072).
In assay [16] the target is T6, Tyrosine-protein phosphatase non-receptor type 7 (Homo sapiens, UniProt P35236).
T6 sequence (P35236 whole entry): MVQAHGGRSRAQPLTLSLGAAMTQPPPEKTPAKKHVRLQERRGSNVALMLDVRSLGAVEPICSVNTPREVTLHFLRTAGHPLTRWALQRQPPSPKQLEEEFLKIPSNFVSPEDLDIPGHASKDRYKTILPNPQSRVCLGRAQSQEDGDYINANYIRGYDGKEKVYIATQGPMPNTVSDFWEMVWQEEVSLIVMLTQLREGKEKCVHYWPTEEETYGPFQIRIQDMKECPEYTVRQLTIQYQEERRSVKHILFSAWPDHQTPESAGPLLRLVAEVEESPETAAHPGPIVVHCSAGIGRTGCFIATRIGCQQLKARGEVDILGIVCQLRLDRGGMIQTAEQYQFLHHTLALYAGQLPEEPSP
In kind it is functional.

The target of assay [17] is Glyceraldehyde-3-phosphate dehydrogenase (Homo sapiens, UniProt P04406).

Active and inactive are the calls of the source. A value given as a limit tells only on which side of the number the result lay.

Neuropeptide Y receptor type 2, sequence (P49146 whole entry): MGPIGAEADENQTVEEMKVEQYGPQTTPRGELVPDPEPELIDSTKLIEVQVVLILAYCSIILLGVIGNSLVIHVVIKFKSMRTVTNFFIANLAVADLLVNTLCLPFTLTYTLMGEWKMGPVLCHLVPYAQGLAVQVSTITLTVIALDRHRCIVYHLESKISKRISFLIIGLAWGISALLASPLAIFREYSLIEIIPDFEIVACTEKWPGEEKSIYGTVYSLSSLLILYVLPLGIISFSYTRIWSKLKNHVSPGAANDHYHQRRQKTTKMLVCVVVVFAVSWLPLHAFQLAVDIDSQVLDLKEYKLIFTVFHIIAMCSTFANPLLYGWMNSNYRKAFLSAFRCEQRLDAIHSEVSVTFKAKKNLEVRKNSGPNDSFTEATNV
Neuropeptide Y receptor type 1, sequence (P25929 whole entry): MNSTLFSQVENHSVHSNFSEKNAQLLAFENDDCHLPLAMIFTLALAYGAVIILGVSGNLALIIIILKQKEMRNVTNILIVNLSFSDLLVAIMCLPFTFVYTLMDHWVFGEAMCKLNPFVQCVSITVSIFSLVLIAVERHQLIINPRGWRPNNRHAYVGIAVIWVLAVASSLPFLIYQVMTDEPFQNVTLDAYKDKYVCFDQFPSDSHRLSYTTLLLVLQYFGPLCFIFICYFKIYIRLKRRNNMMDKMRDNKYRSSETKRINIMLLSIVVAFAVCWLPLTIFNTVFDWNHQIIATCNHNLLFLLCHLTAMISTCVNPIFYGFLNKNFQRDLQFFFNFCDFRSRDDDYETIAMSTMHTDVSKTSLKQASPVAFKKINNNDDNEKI
Heat shock 70 kDa protein 1A, sequence (P0DMV8 whole entry): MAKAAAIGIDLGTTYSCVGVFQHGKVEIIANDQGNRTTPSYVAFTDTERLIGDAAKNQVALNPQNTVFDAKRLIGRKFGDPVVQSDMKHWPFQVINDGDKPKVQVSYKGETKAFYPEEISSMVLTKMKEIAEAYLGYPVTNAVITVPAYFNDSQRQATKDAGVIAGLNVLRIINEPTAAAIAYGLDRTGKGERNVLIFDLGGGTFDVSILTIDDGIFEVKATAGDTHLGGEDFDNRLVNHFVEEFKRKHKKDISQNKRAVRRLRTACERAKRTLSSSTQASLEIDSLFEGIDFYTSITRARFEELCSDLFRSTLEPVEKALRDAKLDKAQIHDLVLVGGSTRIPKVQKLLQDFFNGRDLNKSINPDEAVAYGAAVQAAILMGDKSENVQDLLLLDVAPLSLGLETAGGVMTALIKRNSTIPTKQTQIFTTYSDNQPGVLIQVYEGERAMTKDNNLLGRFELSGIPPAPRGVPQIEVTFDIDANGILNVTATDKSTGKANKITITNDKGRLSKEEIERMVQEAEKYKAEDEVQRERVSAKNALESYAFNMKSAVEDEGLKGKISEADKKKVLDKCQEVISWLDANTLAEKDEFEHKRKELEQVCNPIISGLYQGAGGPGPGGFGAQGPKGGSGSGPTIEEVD
Chaperone protein dnaK, sequence (C3TRK2 whole entry): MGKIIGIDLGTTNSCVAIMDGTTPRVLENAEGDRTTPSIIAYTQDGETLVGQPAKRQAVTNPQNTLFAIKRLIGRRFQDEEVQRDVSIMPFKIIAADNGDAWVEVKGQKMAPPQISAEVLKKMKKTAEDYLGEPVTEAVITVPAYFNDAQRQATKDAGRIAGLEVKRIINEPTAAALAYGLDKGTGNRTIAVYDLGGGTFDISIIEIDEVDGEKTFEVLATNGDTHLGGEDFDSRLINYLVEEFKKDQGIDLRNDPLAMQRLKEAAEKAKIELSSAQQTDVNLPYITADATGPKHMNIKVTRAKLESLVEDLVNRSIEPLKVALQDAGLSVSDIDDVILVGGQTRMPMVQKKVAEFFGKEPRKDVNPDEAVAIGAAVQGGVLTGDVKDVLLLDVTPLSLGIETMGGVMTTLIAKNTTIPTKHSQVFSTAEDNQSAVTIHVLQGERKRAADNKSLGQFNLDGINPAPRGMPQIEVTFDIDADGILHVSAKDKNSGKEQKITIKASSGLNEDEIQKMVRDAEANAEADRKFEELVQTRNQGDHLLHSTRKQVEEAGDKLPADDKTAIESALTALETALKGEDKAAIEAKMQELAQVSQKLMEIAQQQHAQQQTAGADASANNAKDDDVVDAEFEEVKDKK

Consider `Cc1sc2nc(SCc3ccc(C(=O)O)cc3)n(Cc3ccco3)c(=O)c2c1C`, for which the half-maximal effective concentration (EC50) (with HEK293; in assay [1]; in assay [2]) was > 35.4 µM (not active) each time.
Regarding `O=C(Nc1nc(-c2ccccc2)cs1)c1ccccc1Cl`, the CC50 with Vero was 14 µM (active).
Regarding `O=C(Nn1cnnc1)c1ccccc1-c1ccccc1`, the half-maximal inhibitory concentration (IC50) on Aspartyl aminopeptidase is 2.89 µM (active); against Procathepsin L, > 59.6 µM (not active).
Take `CC1CCCN(C(C(=O)Nc2ccc3c(c2)OCCO3)c2ccccc2)C1` (stereo not given): the half-maximal inhibitory concentration (IC50) in the assay with Staphylococcus aureus was 0.125 µM (active).
Regarding `O=C(O)CC1OCC=C2CN3CCC45C6=CC(=O)C(O)=C([N+](=O)[O-])C6=NC4C1C2CC35` (stereo not given), on Protein RecA, the EC50 was 7.02 µM (active). For the same molecule, the AC50 in assay [3] was 3.17 µM (active); in [4] it was 6.67 µM (active). In addition, the IC50 at Genome polyprotein is > 100 µM (active); in [5], > 0.276 µM (active); in assay [6], 1.97 µM (active).
On to `O=C(O)c1cccc(NN=C2c3ccccc3-c3ccccc32)c1`, for which, in assay [7], the half-maximal activity concentration (AC50) is 8.32 µM (active). Moreover, the IC50 in assay [8] was 50 µM (not active); in assay [9] it was > 50 µM (not active); in [10], 23.9 µM (active).
In the case of `O=C(NCc1ccccc1Br)c1cccs1`, the Kd on Chaperone protein dnaK is 39.3 µM (inactive).
Regarding `O=C(O)c1ccc(N2C(=O)c3ccccc3C2=O)cc1`, the IC50 in assay [11] was > 100 µM (inactive); in assay [12] it was > 100 µM (inactive); in assay [13] it was > 100 µM (inactive); in [14] it was > 100 µM (not active); in assay [15], > 100 µM (not active); in [16] it was > 100 µM (not active). The half-inhibitory concentration (IC50) in [17] is reported as > 100 µM (not active).
